We go through 6 compounds from patent publication US5767120A, “Tricyclic derivatives, compositions and methods of use” (Schering Corporation, priority 1995, dated 1998).

In one assay the test system is TNF-α. Briefly: Inhibition of LPS-Induced TNF-α Production From the Murine Cell Line WEHI-265. It counts as cell-based. As to conditions: Mus musculus, WEHI-265 cells, 20-24 hours. Here is the method:
This test procedure is a standard test used to determine anti-TNF-α activity and to evaluate the usefulness of said compounds for counteracting the biological effects of TNF-α.
1. In Vitro Study: Inhibition of LPS-Induced TNF-α Production From the Murine Cell Line WEHI-265
1) Cells (obtained from cell cultures containing ≤10^6 cells/ml) are suspended at 0.2×10^6 cells/ml in complete medium (RPMI1640, with 10% FCS, 10^-5 M 2-ME, 2 mM glutamine and 10 mM HEPES buffer) and plated in CoStar 24 well plates (1.0 ml/well).
2) Compounds are dissolved in the appropriate vehicle at 400 times the concentration to be tested, and 5 μl of compound is added to the wells.
3) LPS (from E. coli 0111:B4) is diluted to 6 μg/ml and 1.0 ml is added to wells.
4) Plates are incubated 20-24 hours in 37° CO02 incubator.
5) Supernatant fluids are collected and analyzed for TNF content as described in J. ImmunoL, 142:3884.

Assay [1] in a line: Inhibition of LPS/Galactosaimine-Induced Lethality (septic shock). It is filed as in vivo, Mice (C57BI/6J males). The following applies: 25 mg/kg orally or i.p. one hour before LPS (100 ng) and d-galactosamine (8 mg) i.p.; survival 24 hours after challenge. As to the method:
This test procedure is a standard test used to determine activity against septic shock.
3. In Vivo Study: Inhibition of LPS/Galactosaimine-Induced Lethality
1) Mice (C57BI/6J males, 6-8 weeks of age) are dosed with the indicated compound (dissolved in CMC suspension vehicle; compounds are given orally or i.p. one hour before challenge with LPS and d-galactosamine).
2) Mice are challenged i.p. with a mixture of LPS (from E. coli 0111:B4; 100 ng) and d-galactosamine (8 mg).
3) Survival is determined 24 hours after challenge. See procedure published in J. Exp. Med. 165:657 (1987)

The test system of the next assay is serum TNF. Briefly: Inhibition of LPS-Induced Serum TNF. It counts as in vivo, Mice (C57BI/6J males). As to conditions: Mus musculus, 1.5 h; 25 mg/kg orally or i.p. one hour before LPS (50 μg i.p.); serum 90 min after LPS; values may be subject to a wide margin of error. Here is the method:
In addition to the in vitro test described above, the following in vivo test was also performed on several of the compounds of the present invention.
2. In Vivo Study: Inhibition of LPS-Induced Serum TNF
1) Mice (C57BI/6J males, 6-8 weeks of age) are dosed with the indicated compound (dissolved in CMC suspension vehicle; compounds are given orally or i.p. one hour before LPS challenge).
3) Mice are bled 90 min after LPS challenge.
4) Sera are analyzed for TNF content by ELISA as described in J. Immunol.

The compound `CCCC1(CCN2CCCC2)c2ccccc2CCc2ccccc21` [IP] gave an inhibition at 10 µM in the assay on TNF-α of 44%. For the same compound, the “# dead/total at 25 mg/kg” value in assay [1] is recorded as 9/9. The compound also gave an inhibition in vivo at 25 mg/kg with serum TNF of 52%.
Taken in the same sequence, the figures for `CCOCC1(CN(C)C)c2ccccc2CCc2ccccc21` [IZ] were 37%, 8/10 and 0%.
In turn, `CCOC1(CCN2CCCC2)c2ccccc2COc2ccccc21` (stereo not drawn) [Compound IM, 1-[2-(11-ethoxy-6,11-dihydrodibenz[b,e]oxepin-11-yl)ethyl]pyrrolidine] had an inhibition at 10 µM in the assay with TNF-α of 54%. The “# dead/total at 25 mg/kg” value in assay [1] was 1/8. The same compound had an inhibition in vivo at 25 mg/kg in the assay on serum TNF of 58%.
Taken in the same sequence, the figures for `CCOC1(CCN(C)C)c2ccccc2COc2ccccc21` (stereo not drawn) [IB] were 33%, 0/9 and 70%.
Taken in the same sequence, the figures for `CCOC1(CCN(C)C)c2ccccc2CCc2ccccc21` [Compound IA, 5-ethoxy-5-dimethylaminoethyl-10,11-dihydro-5H-dibenzo[a,d]cycloheptene] were 51%, 0/8 and 69%.
Taken in the same sequence, the figures for `CCOC1(CCN(C)C(=O)c2ccc(C(=O)OC)cc2)c2ccccc2CCc2ccccc21` [IFF] were 44%, 9/9 and 0%.
